The values that follow come from ChEMBL document CHEMBL1201862, “PubChem BioAssay data set” (2004).

The source made the active and inactive calls.

What is called AC50 is the midpoint of the concentration-response curve, whichever way the signal moves.

One assay concerns the target T1, Protein skinhead-1 (Caenorhabditis elegans, UniProt P34707).
T1 sequence (P34707 whole entry): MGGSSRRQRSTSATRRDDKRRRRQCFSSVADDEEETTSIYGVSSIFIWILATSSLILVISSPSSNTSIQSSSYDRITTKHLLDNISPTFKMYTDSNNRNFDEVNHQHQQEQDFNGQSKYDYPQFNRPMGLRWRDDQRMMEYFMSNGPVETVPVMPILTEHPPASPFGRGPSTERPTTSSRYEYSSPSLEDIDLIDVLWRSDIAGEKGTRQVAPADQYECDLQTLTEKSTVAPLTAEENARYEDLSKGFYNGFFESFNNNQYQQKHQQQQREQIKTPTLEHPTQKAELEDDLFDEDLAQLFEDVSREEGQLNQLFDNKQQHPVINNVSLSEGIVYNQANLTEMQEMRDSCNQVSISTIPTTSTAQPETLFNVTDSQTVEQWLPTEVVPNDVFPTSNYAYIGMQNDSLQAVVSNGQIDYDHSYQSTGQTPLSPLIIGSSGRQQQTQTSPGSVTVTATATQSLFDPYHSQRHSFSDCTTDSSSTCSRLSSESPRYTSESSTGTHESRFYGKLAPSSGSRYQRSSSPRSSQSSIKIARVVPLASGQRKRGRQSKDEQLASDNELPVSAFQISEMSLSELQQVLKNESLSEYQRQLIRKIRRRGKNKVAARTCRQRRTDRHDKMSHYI
It counts as functional.

Assay [1] can be described thus: HPDE-C7 pancreatic duct cell viability loss – fluorescence, HTS (AID 430). The assay is classed as functional, cell-based. The settings on record: Homo sapiens.
The nature of assay [2]: viability loss of HPDE-C7K cells – cell-based, fluorescence, HTS, primary screen (AID 431). The assay is classed as functional. The settings on record: Homo sapiens.
The target in assay [3] is T2, Corticotropin-releasing factor receptor 2/Corticotropin-releasing factor-binding protein (Homo sapiens, UniProt P24387+Q13324).
T2 sequence (Q13324 whole entry): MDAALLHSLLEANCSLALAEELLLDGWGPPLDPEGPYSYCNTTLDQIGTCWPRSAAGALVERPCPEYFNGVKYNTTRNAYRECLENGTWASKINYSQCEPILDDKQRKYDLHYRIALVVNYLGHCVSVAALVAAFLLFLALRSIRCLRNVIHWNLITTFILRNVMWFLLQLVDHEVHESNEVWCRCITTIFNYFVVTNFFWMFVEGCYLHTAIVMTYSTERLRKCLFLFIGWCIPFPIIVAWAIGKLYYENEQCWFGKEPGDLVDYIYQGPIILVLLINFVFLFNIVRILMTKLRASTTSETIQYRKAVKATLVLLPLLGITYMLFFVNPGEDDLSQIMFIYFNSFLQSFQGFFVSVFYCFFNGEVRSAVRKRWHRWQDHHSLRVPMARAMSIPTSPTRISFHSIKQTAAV
T2 sequence (P24387 whole entry): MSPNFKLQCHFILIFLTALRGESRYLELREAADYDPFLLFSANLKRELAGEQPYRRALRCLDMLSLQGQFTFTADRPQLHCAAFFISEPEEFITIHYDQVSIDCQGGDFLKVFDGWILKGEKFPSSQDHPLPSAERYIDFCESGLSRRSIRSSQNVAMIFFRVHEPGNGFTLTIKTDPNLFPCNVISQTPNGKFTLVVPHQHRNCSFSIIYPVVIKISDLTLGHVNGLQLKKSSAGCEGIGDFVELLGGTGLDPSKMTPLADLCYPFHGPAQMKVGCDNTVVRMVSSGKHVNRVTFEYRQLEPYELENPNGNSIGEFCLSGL
Briefly: activators of CRF receptor 2 with binding protein – uHTS hits, confirmation (AID 602473). The assay is classed as functional. The settings on record: read-out: EC50_Mean.

For assay [4], the target named is T2, Corticotropin-releasing factor receptor 2/Corticotropin-releasing factor-binding protein. Briefly: Dose Response confirmation of uHTS hits for small molecule antagonists of the CRF-binding protein and CRF-R2 receptor complex. It counts as functional. As to conditions: read-out: IC50_Mean.
A short description of assay [5]: blockers of CRF-binding protein–CRF-R2 complex – cell-based, uHTS hits, 384-well, dose response (AID 651639). The settings on record: read-out: IC50_Mean. It counts as functional, Homo sapiens.
In assay [6] the test system is Streptococcus sp. 'group A'. Briefly: Streptococcus pyogenes SK(-)GAS viability under kanamycin – luminescence, BacTiterGlo, confirmation, counter-screen for streptokinase expression inhibitor project, dose response (AID 1900). The assay is classed as functional, organism-based.
In a further assay the test system is Streptococcus. Briefly: GAS UMAA2166 growth inhibition – luminescence, BacTiterGlo, counter-screen for streptokinase expression inhibitor project, dose response (AID 1915).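 Further: potency for reduction of bacterial viability or growth.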 The assay is classed as functional, organism-based.
The target in the next assay is T3, Streptokinase A (Streptococcus pyogenes serotype M1, UniProt P10520).
T3 sequence (P10520 whole entry): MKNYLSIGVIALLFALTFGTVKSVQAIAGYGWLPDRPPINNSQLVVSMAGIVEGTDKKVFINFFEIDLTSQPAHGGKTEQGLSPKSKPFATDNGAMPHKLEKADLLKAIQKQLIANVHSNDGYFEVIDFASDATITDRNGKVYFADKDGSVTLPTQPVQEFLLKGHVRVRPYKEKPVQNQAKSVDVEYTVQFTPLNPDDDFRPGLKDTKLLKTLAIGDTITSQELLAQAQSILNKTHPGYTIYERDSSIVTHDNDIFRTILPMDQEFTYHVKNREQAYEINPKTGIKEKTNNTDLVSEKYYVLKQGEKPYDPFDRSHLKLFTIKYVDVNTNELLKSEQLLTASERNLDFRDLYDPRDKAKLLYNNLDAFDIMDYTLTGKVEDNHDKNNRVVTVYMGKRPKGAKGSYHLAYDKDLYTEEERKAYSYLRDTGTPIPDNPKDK
Briefly: viability-normalized secreted streptokinase activity reduction – plasminogen activation absorbance, OD405, dose response (AID 1914).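 Further: secreted streptokinase activity via plasminogen activation per viability signal from cell pellet.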 The assay is classed as functional, Streptococcus pyogenes M1 GAS.

For assay [7], the target named is T4, Long-chain-fatty-acid--AMP ligase FadD28 (Mycobacterium tuberculosis, UniProt P9WQ59).
T4 sequence (P9WQ59 whole entry): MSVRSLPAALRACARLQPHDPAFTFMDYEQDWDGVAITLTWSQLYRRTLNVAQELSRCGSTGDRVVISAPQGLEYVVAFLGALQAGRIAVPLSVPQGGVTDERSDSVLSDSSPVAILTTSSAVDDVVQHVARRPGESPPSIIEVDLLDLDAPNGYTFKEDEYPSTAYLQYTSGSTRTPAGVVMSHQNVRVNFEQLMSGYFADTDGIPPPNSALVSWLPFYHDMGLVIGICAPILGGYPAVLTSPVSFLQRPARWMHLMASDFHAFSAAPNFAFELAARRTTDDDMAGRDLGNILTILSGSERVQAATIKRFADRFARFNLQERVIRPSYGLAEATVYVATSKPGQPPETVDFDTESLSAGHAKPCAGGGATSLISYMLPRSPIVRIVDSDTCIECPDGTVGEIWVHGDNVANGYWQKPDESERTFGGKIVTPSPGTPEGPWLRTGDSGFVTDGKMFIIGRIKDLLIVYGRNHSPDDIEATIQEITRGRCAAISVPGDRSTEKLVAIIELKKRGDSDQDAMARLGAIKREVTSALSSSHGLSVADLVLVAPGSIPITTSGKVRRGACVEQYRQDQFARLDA
Briefly: Fluorescence polarization aasay to screen for inhibitors that compete for the binding of FadD28 to a bisubstrate Measured in Biochemical System Using Plate Reader - 2147-01_Inhibitor_Dose_CherryPick_Activity. It counts as functional, Mycobacterium tuberculosis H37Rv. A general note: Polarisation of emitted light reports the rotation of a fluorescent probe.

The target in assay [8] is T5, Heat shock factor protein 1 (Mus musculus, UniProt P38532).
T5 sequence (P38532 whole entry): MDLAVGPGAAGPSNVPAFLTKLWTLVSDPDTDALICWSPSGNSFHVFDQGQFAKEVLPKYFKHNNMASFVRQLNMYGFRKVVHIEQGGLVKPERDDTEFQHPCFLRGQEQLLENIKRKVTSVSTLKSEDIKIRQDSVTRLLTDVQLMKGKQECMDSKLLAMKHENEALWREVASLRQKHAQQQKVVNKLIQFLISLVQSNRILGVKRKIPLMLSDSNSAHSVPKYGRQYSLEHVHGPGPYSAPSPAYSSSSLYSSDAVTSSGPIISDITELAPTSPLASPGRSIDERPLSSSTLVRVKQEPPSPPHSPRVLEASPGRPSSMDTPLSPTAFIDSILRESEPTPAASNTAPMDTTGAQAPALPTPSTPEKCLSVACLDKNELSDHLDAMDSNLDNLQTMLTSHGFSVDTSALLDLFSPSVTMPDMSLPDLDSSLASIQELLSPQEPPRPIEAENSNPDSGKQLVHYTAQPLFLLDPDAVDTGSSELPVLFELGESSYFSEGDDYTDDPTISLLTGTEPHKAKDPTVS
Briefly: enhancement of HSF1-driven luciferase signal – cell-based, NIH3T3, luminescence, dose retest, confirmation (AID 435004).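 Further: stress induced by proteasome inhibitor MG132 added 30 min after compound; luciferase reporter driven by HSF1 response element in NIH3T3 cells; actives raise luminescence as potentiators of the MG132 stress response.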 The assay is classed as functional.

Assay [9] is described as follows: OVCAR-3 cell viability loss – plate reader, dry powder samples, PAX8 inhibitor project, dose response (AID 743044). It counts as functional, cell-based.
A further assay deals with Paired box protein Pax-8 (Homo sapiens, UniProt Q06710). Briefly: PAX8 transcriptional activity inhibition in RMG-I – RMG-I cells, luciferase, cherry-pick, dose response (AID 687027).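 Further: luciferase reporter driven by Pax8 target thyroperoxidase promoter measured by SteadyGlo luminescence.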 The assay is classed as functional, cell-based.
Assay [10] can be described thus: growth inhibition of PfATP4-mutant resistant parasites – NITD609-resistant line, SYBR Green, dry powder, dose response (AID 1159571).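 Further: parasites synchronized at ring stage by sorbitol before testing.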 The assay is classed as functional, cell-based.
Assay [11] can be described thus: Dd2 malaria parasite growth inhibition potency – SYBR Green, dry powder samples, dose response (AID 1159566).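 Further: potency for growth inhibition with lower SYBR green DNA signal.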 It counts as functional, cell-based.
A short description of assay [12]: P. falciparum Dd2 growth inhibitors, dose response, SYBR Green, cherry-picked samples (AID 1159567). It counts as functional, cell-based.
The nature of assay [13]: toxicity to human HepG2 hepatoma cells – cell-based, plate reader, dry powder samples, cytotoxicity control, dose response (AID 1159569).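 Further: inhibitor potency with signal falling toward the positive control level.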 It counts as functional.
A short description of assay [14]: growth inhibition of yeast DHODH-expressing 3D7 parasites – SYBR Green, dry powder samples, dose response (AID 1159570).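 Further: parasite growth measured after 72 hours of compound exposure.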 It counts as functional, cell-based.

Chain of Paired box protein Pax-8 (Q06710 whole entry): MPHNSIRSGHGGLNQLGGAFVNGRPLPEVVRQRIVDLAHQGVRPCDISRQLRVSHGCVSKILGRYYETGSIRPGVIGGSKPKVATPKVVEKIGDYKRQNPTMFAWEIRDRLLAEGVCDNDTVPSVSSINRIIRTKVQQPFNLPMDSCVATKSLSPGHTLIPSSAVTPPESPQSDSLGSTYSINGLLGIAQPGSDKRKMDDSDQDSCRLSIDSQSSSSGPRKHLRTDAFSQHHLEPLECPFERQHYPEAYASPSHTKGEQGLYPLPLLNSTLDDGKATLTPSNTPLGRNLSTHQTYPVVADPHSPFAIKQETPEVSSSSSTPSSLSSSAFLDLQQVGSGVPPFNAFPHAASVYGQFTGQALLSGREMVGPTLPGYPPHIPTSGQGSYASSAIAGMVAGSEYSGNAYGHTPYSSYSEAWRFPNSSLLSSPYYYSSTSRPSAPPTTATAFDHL

Consider `CN(CC(=O)NCCc1ccccc1)S(=O)(=O)c1ccc(Br)s1`, for which, at Protein skinhead-1, the IC50 is > 100 µM (inactive).
As for `Cc1cc(NCc2ccccc2)nc(-c2ccccc2O)n1`, the figures for the EC50 in [1] and in assay [2] were 19.2 µM (active) and 10.3 µM (active), respectively.
On to `Cc1ccc(-c2ccnc3nc(Sc4ncc(C(F)(F)F)cc4Cl)nn23)cc1`, for which, at Protein skinhead-1, the IC50 is > 100 µM (inactive).
Turning to `Cc1nc2cc(C(=O)NCc3ccc4c(c3)OCO4)ccc2n1-c1ccc(Br)cc1`, the EC50 in assay [3] was > 53 µM (inactive). Besides, the IC50 in assay [4] is < 0.368 µM (active); in assay [5] it was > 20 µM (inactive).
Take `O=C(c1cccc(S(=O)(=O)N2CCOCC2)c1)N(Cc1ccc(F)cc1)Cc1ccco1`: the EC50 in assay [3] is > 53 µM (inactive). For the same compound, the IC50 was 10.6 µM (active) in assay [4] and > 20 µM (inactive) in assay [5].
`COc1ccc(-c2c(C(F)(F)F)nn3c(O)cc(-c4ccccc4)nc23)cc1`: the EC50 in [6] was 8.01 µM (active); in the assay on Streptococcus it was 11.6 µM (active); on Streptokinase A, > 150 µM (not active); in [3] it was > 53 µM (inactive). In addition, the IC50 is 4.6 µM (active) in assay [4] and 15.7 µM (active) in assay [5].
On to `O=C(O)c1cnc2ccccc2n1`, for which the IC50 on Protein skinhead-1 was > 100 µM (inactive).
Consider `CC(C)c1ccc(NC(=O)C(=O)C2C(=O)Nc3ccccc32)cc1` (centres undefined), for which the AC50 in assay [7] was 98.2 µM (active).
Consider `O=C(Oc1cccc2cccnc12)c1ccc(Br)o1`, for which the EC50 in assay [1] was 13.9 µM (active); in assay [8], > 260 µM (inactive); in assay [2] it was > 20 µM (not active).
In the case of `COc1cccc(NC(=O)CN2CCc3ccccc3C2)c1`, at Protein skinhead-1, the IC50 is > 100 µM (inactive).
Regarding `COc1cccc(-c2nc(NCc3ccco3)c3ccccc3n2)c1O`, the EC50 in assay [1] is > 20 µM (not active); in [2], 1.11 µM (active).
Consider `C[C@@H]1CCCCO[C@@H](CN(C)Cc2ccc(Cl)c(Cl)c2)[C@H](C)CN([C@@H](C)CO)C(=O)c2cc(NC(=O)Nc3ccc(C(F)(F)F)cc3)ccc2O1`, for which the AC50 is 29.6 µM (active) in assay [9] and 5.08 µM (active) on Paired box protein Pax-8.
Consider `C[C@@H]1CCCCO[C@@H](CN(C)S(=O)(=O)c2ccc(Cl)cc2)[C@H](C)CN([C@@H](C)CO)C(=O)c2cc(N(C)C)ccc2O1`, for which the AC50 is 28.3 µM (active) in assay [9] and 3.28 µM (active) at Paired box protein Pax-8.
`Oc1ccc(Br)cc1/C=N/n1c(S)nnc1C1CCCCC1`: the AC50 in [7] was 8.32 µM (active).
Regarding `C[C@H](CO)N1C[C@H](C)[C@@H](CN(C)C(=O)C2CCCCC2)Oc2ncc(/C=C/c3ccccc3)cc2C1=O`, the AC50 is 0.451 µM (active) in [10]; 0.35 µM (active) in assay [11]; 0.658 µM (active) in [12]; 50.2 µM (active) in assay [13]; 0.608 µM (active) in assay [14].
Taken in the same sequence, the figures for `C[C@H]1CN([C@@H](C)CO)C(=O)c2c(c3ccccc3n2C)-c2ccccc2CO[C@H]1CN(C)C(=O)c1cc(Cl)cc(Cl)c1` were 1.58 µM (active), 1.48 µM (active), 2.14 µM (active), 27.8 µM (active) and 2.36 µM (active).
Take `COc1ccc(C#Cc2ccc3c(c2)[C@H]2[C@H](CCN2Cc2ccncc2)[C@H](CO)N3)cc1`: the AC50 is 1.11 µM (active) in assay [10]; 0.922 µM (active) in assay [11]; 1.19 µM (active) in assay [12]; 65.7 µM (active) in [13]; 1.18 µM (active) in [14].
